From article PMC4410085 (Bioorganic & medicinal chemistry, 2015) come the findings set out here.

For one assay, the system named is Bovine brain tubulin. The experiment in a line: Tubulin assembly assay. The class given is biochemical. The settings on record: read-out: Inhibition tubulin assembly IC50; ± SD; purified bovine brain tubulin.
The subject of another assay is A-10 cells. The experiment in a line: Loss of cellular microtubules, indirect immunofluorescence. The settings on record: result in words. It counts as cell-based.
A further assay has as its target PDGFR-β (Homo sapiens, UniProt P09619). The experiment in a line: Phosphotyrosine ELISA cytoblot, PDGFR-β. It counts as cell-based. Conditions: PDGFR-β expressing cells, versus sunitinib. For orientation: In an ELISA, binding on a coated surface is turned into a signal by an enzyme label.

Sequence of PDGFR-β (P09619 33-1106): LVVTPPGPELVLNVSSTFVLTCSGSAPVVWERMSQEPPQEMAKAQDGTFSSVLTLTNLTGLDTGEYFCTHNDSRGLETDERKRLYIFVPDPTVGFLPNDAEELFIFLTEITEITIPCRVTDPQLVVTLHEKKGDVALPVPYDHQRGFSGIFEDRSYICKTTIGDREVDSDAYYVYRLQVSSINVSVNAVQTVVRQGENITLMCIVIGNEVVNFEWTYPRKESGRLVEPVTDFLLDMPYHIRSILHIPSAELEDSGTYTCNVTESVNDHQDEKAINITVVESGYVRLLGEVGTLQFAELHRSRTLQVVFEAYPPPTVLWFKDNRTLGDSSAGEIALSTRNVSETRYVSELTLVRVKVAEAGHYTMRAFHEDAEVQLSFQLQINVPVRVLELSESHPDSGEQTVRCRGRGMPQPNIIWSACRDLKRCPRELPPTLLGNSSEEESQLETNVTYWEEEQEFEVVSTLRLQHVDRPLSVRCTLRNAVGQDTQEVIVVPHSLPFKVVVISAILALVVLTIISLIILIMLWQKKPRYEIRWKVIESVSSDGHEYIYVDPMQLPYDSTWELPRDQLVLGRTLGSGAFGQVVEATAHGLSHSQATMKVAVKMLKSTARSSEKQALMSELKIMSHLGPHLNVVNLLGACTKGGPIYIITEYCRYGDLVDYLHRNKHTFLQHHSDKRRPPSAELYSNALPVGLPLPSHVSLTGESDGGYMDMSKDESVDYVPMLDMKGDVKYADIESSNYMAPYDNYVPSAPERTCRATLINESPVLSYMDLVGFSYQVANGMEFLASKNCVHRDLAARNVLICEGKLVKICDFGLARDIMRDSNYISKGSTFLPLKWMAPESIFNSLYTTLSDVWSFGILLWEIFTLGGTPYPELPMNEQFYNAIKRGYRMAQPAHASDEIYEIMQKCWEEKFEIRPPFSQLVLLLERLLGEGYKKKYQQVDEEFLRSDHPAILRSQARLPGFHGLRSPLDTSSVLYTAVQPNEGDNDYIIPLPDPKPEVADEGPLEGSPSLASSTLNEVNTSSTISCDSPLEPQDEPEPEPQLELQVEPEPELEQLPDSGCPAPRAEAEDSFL

As a reminder, the IC50 is the point on the concentration scale where inhibition reaches its midpoint. For `COc1ccc(/C=C\c2cc(OC)c(OC)c(OC)c2)cc1O` [CA-4], the IC50 in the assay on Bovine brain tubulin was determined as 1000 ± 90 nM.

`COc1ccc(N(C)c2nc(C)nc3oc(C)cc23)c(OC)c1` [Compound 2, N-(2,4-dimethoxyphenyl)-N,2,6-trimethylfuro[2,3-d]pyrimidin-4-amine]: in the assay with A-10 cells, the “effect on cellular microtubules” value is listed as “dose-dependent loss of cellular microtubules”.

On to `COc1ccc(N(C)c2nc(C)nc3oc(C)cc23)cc1OC` [Compound 3, N-(3,4-dimethoxyphenyl)-N,2,6-trimethylfuro[2,3-d]pyrimidin-4-amine], for which the “effect on cellular microtubules” value in the assay on A-10 cells is “dose-dependent loss of cellular microtubules”.

Regarding `Cc1nc(N(C)c2ccc3c(c2)CCO3)c2cc(C)oc2n1` [Compound 6, N-(2,3-dihydro-1-benzofuran-5-yl)-N,2,6-trimethylfuro[2,3-d]pyrimidin-4-amine], in the assay with A-10 cells, the “effect on cellular microtubules” value is listed as “dose-dependent loss of cellular microtubules”. The “fold better than sunitinib, PDGFR-β” value at PDGFR-β was “about 4 fold”.

Regarding `Cc1nc(N(C)c2ccc3occc3c2)c2cc(C)oc2n1` [Compound 7, N-1-benzofuran-5-yl-N,2,6-trimethylfuro[2,3-d]pyrimidin-4-amine], in the assay with A-10 cells, the “effect on cellular microtubules” value was “dose-dependent loss of cellular microtubules”. Besides, on PDGFR-β, the “fold better than sunitinib, PDGFR-β” value is “about 4 fold”.

Regarding `COc1ccc2c(c1)CCN2c1nc(C)nc2oc(C)cc12` [Compound 8, 4-(5-methoxyindolin-1-yl)-2,6-dimethylfuro[2,3-d]pyrimidine], the “effect on cellular microtubules” value with A-10 cells is recorded as “no effect on cellular microtubules”.

With `COc1ccc2c(c1)CCCN2c1nc(C)nc2oc(C)cc12` [Compound 10, 4-(6-methoxy-3,4-dihydroquinolin-1(2H)-yl)-2,6-dimethylfuro[2,3-d]pyrimidine], the “effect on cellular microtubules” value in the assay on A-10 cells is recorded as “dose-dependent loss of cellular microtubules”.

On to `CCOc1ccc(N(C)c2nc(C)nc3oc(C)cc23)cc1` [Compound 12, N-(4-ethoxyphenyl)-N,2,6-trimethylfuro[2,3-d]pyrimidin-4-amine], for which the “effect on cellular microtubules” value with A-10 cells is “dose-dependent loss of cellular microtubules”.
